Among the test systems are HL-60(TB) leukemia; HOP-62 NSCLC; MDA-MB-231 breast; MALME-3M melanoma; NCI-H460 lung; CAKI-1 renal; EKVX NSCLC; M14 melanoma; PC-3 prostate; MDA-N; SK-MEL-5 melanoma; SK-OV-3 ovarian; 786-0 renal; SR leukemia; HCT-116 colon; RXF 393 renal.
Common to all, as to test: NCI tumour cell line growth inhibition, 48 h

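Where inhibition never reached the appropriate level, the endpoint shown equals the highest concentration tested. Otherwise, values were interpolated linearly from a five-concentration, 48-hour dose response in 96-well plates. GI50 = concentration required for 50% inhibition of growth. TGI: concentration producing complete growth inhibition.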 A value given as a limit tells only on which side of the number the result lay.

As for `CCOC(=O)CCC(NC(=O)Cc1ccc(Nc2nc3cc(F)c(F)cc3nc2C(=O)OCC)cc1)C(=O)OCC` (configuration not stated), the TGI was 50 µM with HL-60(TB) leukemia; more than 100 µM with HOP-62 NSCLC; more than 100 µM with MDA-MB-231 breast; more than 100 µM in the assay with MALME-3M melanoma; more than 100 µM in the assay with NCI-H460 lung; more than 100 µM in the assay with CAKI-1 renal. Moreover, the TGI in the assay on EKVX NSCLC, with M14 melanoma, with PC-3 prostate, in the assay on MDA-N, with SK-MEL-5 melanoma and in the assay with SK-OV-3 ovarian was more than 100 µM in each case. Further, the TGI was more than 100 µM with 786-0 renal, 55.9 µM with SR leukemia and more than 100 µM with HCT-116 colon.

Regarding `O=C1c2cccc3c2C(=O)c2c(cccc21)OCCOCCOCCOCCO3`, the TGI in the assay with HL-60(TB) leukemia, in the assay on HOP-62 NSCLC, in the assay on MALME-3M melanoma, in the assay on NCI-H460 lung, with CAKI-1 renal and in the assay on EKVX NSCLC was more than 100 µM in each case. Further, the TGI in the assay with M14 melanoma is more than 100 µM; with RXF 393 renal it was more than 100 µM; with SK-MEL-5 melanoma, more than 100 µM; in the assay on SK-OV-3 ovarian it was more than 100 µM; in the assay on SR leukemia it was 58.9 µM; in the assay on HCT-116 colon it was more than 100 µM.

Consider `COc1cc2c(cc1OC)C(CC1=C(c3ccccc3)CN3CCc4cc(OC)c(OC)cc4C3C1)NCC2` (configuration not stated), for which the TGI in the assay with HL-60(TB) leukemia turned out to be 28.6 µM; in the assay with MALME-3M melanoma, 35.1 µM; in the assay with NCI-H460 lung it was 37.9 µM; in the assay with CAKI-1 renal, 44.6 µM; in the assay on EKVX NSCLC, 38.8 µM; in the assay on M14 melanoma, 46.3 µM. Further, the TGI in the assay on RXF 393 renal turned out to be 17.6 µM; in the assay with SK-MEL-5 melanoma, 31.3 µM; in the assay on SK-OV-3 ovarian, 43.9 µM; in the assay on 786-0 renal, 29.5 µM.

Turning to `C=CCc1c(O)c2c(c3oc(=O)cc(C)c13)CC(C)O2` (configuration not stated), the TGI in the assay with HL-60(TB) leukemia, in the assay on HOP-62 NSCLC, in the assay on MALME-3M melanoma, in the assay with NCI-H460 lung, in the assay with CAKI-1 renal and in the assay on EKVX NSCLC was more than 100 µM in each case. Besides, the TGI in the assay with M14 melanoma, with RXF 393 renal, in the assay with SK-MEL-5 melanoma, with SK-OV-3 ovarian, with SR leukemia and in the assay on HCT-116 colon was more than 100 µM in each case.

Consider `O=c1cc[nH]c(=O)[nH]1`, for which the TGI is more than 1000 µM in the assay on HL-60(TB) leukemia; more than 872 µM with HOP-62 NSCLC; more than 1000 µM in the assay on MALME-3M melanoma; 883 µM with NCI-H460 lung; more than 920 µM in the assay with CAKI-1 renal; 488 µM in the assay on EKVX NSCLC. Moreover, the TGI in the assay on RXF 393 renal is more than 889 µM; in the assay on SK-MEL-5 melanoma, 342 µM; in the assay with SK-OV-3 ovarian it was more than 1000 µM; with HCT-116 colon, more than 821 µM. Moreover, the GI50 in the assay on MALME-3M melanoma was more than 851 µM.

For `CO/N=C(\C)c1ccc(Nc2nc3ccccc3c3occc23)cc1`, the TGI in the assay with HL-60(TB) leukemia amounted to 50.4 µM; with HOP-62 NSCLC it was 29.5 µM; in the assay on MDA-MB-231 breast, 25.9 µM; with MALME-3M melanoma, 28.3 µM; in the assay on NCI-H460 lung, 34.1 µM; with CAKI-1 renal, 32 µM. For the same molecule, the TGI in the assay on EKVX NSCLC is 27.5 µM; with M14 melanoma, 30.2 µM; in the assay on PC-3 prostate it was 30.3 µM; with MDA-N, 28.7 µM; in the assay with SK-MEL-5 melanoma, 29.8 µM; in the assay with SK-OV-3 ovarian, 29.5 µM. Besides, the figures for the TGI with 786-0 renal, in the assay on SR leukemia and with HCT-116 colon were 27.2 µM, 58.6 µM and 27.9 µM, respectively.

As to `Cc1n(Cc2ccccc2)c2c([n+]1C)C(=O)c1ccccc1C2=O`, the TGI came to 0.775 µM in the assay with HOP-62 NSCLC; 0.299 µM with MDA-MB-231 breast; 0.0577 µM with MALME-3M melanoma; 0.5 µM in the assay on NCI-H460 lung; 11.3 µM in the assay with CAKI-1 renal; 1.01 µM in the assay with EKVX NSCLC. Further, the TGI in the assay with M14 melanoma was found to be 0.282 µM; with PC-3 prostate, 0.999 µM; with MDA-N, 0.32 µM; in the assay on RXF 393 renal it was 2.42 µM; in the assay with SK-MEL-5 melanoma, 0.0509 µM; with SK-OV-3 ovarian, 1.65 µM. The results for the TGI with 786-0 renal, with SR leukemia and in the assay with HCT-116 colon were 0.877 µM, more than 45.5 µM and 0.512 µM, respectively.

Regarding `CC(=O)Nc1ccc(N=Nc2c(O)c(S(=O)(=O)O)cc3cc(S(=O)(=O)O)ccc23)cc1`, the TGI in the assay on HOP-62 NSCLC, with MDA-MB-231 breast, in the assay with MALME-3M melanoma, in the assay with CAKI-1 renal, with EKVX NSCLC and in the assay with M14 melanoma was more than 100 µM each time. Moreover, the TGI in the assay on PC-3 prostate, with MDA-N, with RXF 393 renal, in the assay with SK-MEL-5 melanoma, with SK-OV-3 ovarian and with 786-0 renal was more than 100 µM in each case. The same molecule came in with a TGI with HCT-116 colon of more than 100 µM.

With `O=C(O)C(O)C(O)C(O)C(O)c1nc2ccccc2s1` (configuration not stated), the TGI in the assay with HL-60(TB) leukemia was 46 µM; in the assay with HOP-62 NSCLC it was 33.5 µM; in the assay on MDA-MB-231 breast, 31.9 µM; in the assay with MALME-3M melanoma it was 36.7 µM; in the assay on NCI-H460 lung it was 31.6 µM; with CAKI-1 renal, 33.5 µM. The TGI with EKVX NSCLC worked out at 35.8 µM; with M14 melanoma it was 45.7 µM; in the assay with PC-3 prostate, 30 µM; with MDA-N, 33.2 µM; in the assay with RXF 393 renal, 32.6 µM; in the assay with SK-MEL-5 melanoma it was 74.1 µM. Moreover, the TGI with SK-OV-3 ovarian is 34.4 µM; in the assay with 786-0 renal, 30.4 µM; with HCT-116 colon it was 30.1 µM.

For `Cc1c(O)ccc2c(O)c(NC(=O)c3ccc4c(c3)CCC(C)(C)O4)c(=O)oc12`, the TGI with HL-60(TB) leukemia, in the assay on HOP-62 NSCLC, in the assay on MDA-MB-231 breast, with MALME-3M melanoma, with NCI-H460 lung and with CAKI-1 renal was more than 100 µM in each case. The TGI in the assay on EKVX NSCLC, in the assay on PC-3 prostate, in the assay with MDA-N, in the assay with RXF 393 renal, with SK-MEL-5 melanoma and in the assay on SK-OV-3 ovarian was more than 100 µM each time. The TGI with 786-0 renal, in the assay on SR leukemia and in the assay with HCT-116 colon was more than 100 µM in each case.

Turning to `C[n+]1c2ccc(Cl)cc2nc2cc(-c3ccccc3)ccc21`, the TGI is 10.7 µM with HL-60(TB) leukemia; more than 100 µM with HOP-62 NSCLC; 44 µM with MDA-MB-231 breast; 40.4 µM in the assay with MALME-3M melanoma; 67.3 µM with NCI-H460 lung; 37.7 µM in the assay on CAKI-1 renal. For the same molecule, the TGI was 29.9 µM in the assay with EKVX NSCLC; 27.7 µM in the assay on M14 melanoma; 47.3 µM in the assay with PC-3 prostate; 55.2 µM in the assay with RXF 393 renal; 24.3 µM in the assay with SK-MEL-5 melanoma; more than 100 µM in the assay with 786-0 renal. Also, the values for the TGI in the assay with SR leukemia and with HCT-116 colon were 9.14 µM and more than 100 µM, respectively.
